Assay results published in US9833497B2, “Human originated EGF domain proteins and use of the same” (CHENGDU SOURCEBIO LIMITED-LIABILITY COMPANY, priority 2013, dated 2017).

Columns and labels:
Type in all cases: cell-based
[1] = test system: Enterobacter cloacae; assay: MIC against Gram-negative bacteria: Enterobacter cloacae; conditions: for MIC (μg/mL) E. cloacae / MIC E. cloacae: 5×10^5 CFU/mL
Method in brief: (§1)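 Antibacterial activity of purified human EGF domain proteins: two-fold concentration series, triplicate wells, LB broth, 5×10^5 CFU/mL bacteria, 37° C shaking incubation. The lowest concentration without growth defines the MIC.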

[2] = test system: Klebsiella pneumonia; assay: MIC against Gram-negative bacteria: Klebsiella pneumonia; conditions: for MIC (μg/mL) K. pneumonia / MIC K. pneumonia: 5×10^5 CFU/mL
Method in brief: as §1

[3] = test system: Pseudomonas aeruginosa; assay: MIC against Gram-negative bacteria: Pseudomonas aeruginosa; conditions: for MIC (μg/mL) P. aeruginosa / MIC P. aeruginosa: 5×10^5 CFU/mL
Method in brief: as §1

[4] = test system: E. coli DH5α; assay: Antibacterial activity: MIC and growth curve against E. coli DH5α in 96-well plate; conditions: minimal inhibitory concentration against E. coli DH5α; 96-well plate, 5×10^5 CFU/mL, 37° C., judged after 8 h
Method in brief: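 Log-phase DH5α (OD600 about 0.5, 37° C, 185 rpm in LB) was pelleted, resuspended in fresh LB and seeded at 5×10^5 CFU/mL with recombinant protein at 50, 25 and 12.5 μg/mL (two-fold series), in triplicate. Plates were shaken at 175 rpm, 37° C, and OD600 was read every 30 min. MIC was the lowest concentration with no growth.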

[5] = test system: Serratia marcescens; assay: MIC against Gram-negative bacteria: Serratia marcescens; conditions: for MIC (μg/mL) S. marcescens / MIC S. marcescens: 5×10^5 CFU/mL
Method in brief: as §1

[6] = test system: Proteus vulgaris; assay: MIC against Gram-negative bacteria: Proteus vulgaris; conditions: for MIC (μg/mL) P. vulgaris / MIC P. vulgaris: 5×10^5 CFU/mL
Method in brief: as §1

[7] = test system: Proteus mirabilis; assay: MIC against Gram-negative bacteria: Proteus mirabilis; conditions: for MIC (μg/mL) P. mirabilis / MIC P. mirabilis: 5×10^5 CFU/mL
Method in brief: as §1

[8] = test system: E. coli BL21; assay: MIC against Gram-negative bacteria: E. coli BL21; conditions: for MIC / MIC (μg/mL) E. coli BL21: E. coli BL21; for MIC (μg/mL) E. coli BL21 / MIC E. coli BL21: 5×10^5 CFU/mL
Method in brief: as §1

[9] = test system: Citrobacter diversus; assay: MIC against Gram-negative bacteria: Citrobacter diversus; conditions: for MIC (μg/mL) C. diversus / MIC C. diversus: 5×10^5 CFU/mL
Method in brief: as §1

[10] = test system: Moraxella catarrhalis; assay: MIC against Gram-negative bacteria: Moraxella catarrhalis; conditions: for MIC (μg/mL) M. catarrhalis / MIC M. catarrhalis: 5×10^5 CFU/mL
Method in brief: as §1

[11] = test system: Aeromonas hydrophila; assay: MIC against Gram-negative bacteria: Aeromonas hydrophila; conditions: for MIC (μg/mL) A. hydrophila / MIC A. hydrophila: 5×10^5 CFU/mL
Method in brief: as §1

[12] = E. cloacae, 10 h cultivation at 37° C.
[13] = K. pneumonia, 10 h cultivation at 37° C.
[14] = P. aeruginosa, 10 h cultivation at 37° C.
[15] = S. marcescens, 10 h cultivation at 37° C.
[16] = P. vulgaris, 10 h cultivation at 37° C.
[17] = P. mirabilis, 10 h cultivation at 37° C.
[18] = C. diversus, 10 h cultivation at 37° C.
[19] = M. catarrhalis, 10 h cultivation at 37° C.
[20] = A. hydrophila, 10 h cultivation at 37° C.

PRT954 (NIDDCPNHRCQNGGVCVDGVNTYNCRCPPQWTGQFCT; listed as Homo sapiens)
MIC [1, 12]: 50 µg/mL | MIC [2, 13]: 25 µg/mL | MIC [3, 14]: 12.5 µg/mL | MIC [4]: 50 µg/mL | MIC [5, 15]: 25 µg/mL | MIC [6, 16]: 12.5 µg/mL | MIC [7, 17]: 25 µg/mL | MIC ([8]; 10 h cultivation at 37° C.): 25 µg/mL | MIC [9, 18]: 25 µg/mL | MIC [10, 19]: 50 µg/mL | MIC [11, 20]: 12.5 µg/mL

PRT134 (IKDRCLPNYCEHGGSCSQSWTTFYCNCSDTSYTGATCH; listed as Homo sapiens)
MIC (μg/mL) E. cloacae ([1]; Enterobacter cloacae, 96-well plate, 37° C., 10 h): 12.5 µg/mL | MIC (μg/mL) K. pneumonia ([2]; Klebsiella pneumonia, 96-well plate, 37° C., 10 h): 25 µg/mL | MIC (μg/mL) P. aeruginosa ([3]; Pseudomonas aeruginosa, 96-well plate, 37° C., 10 h): 12.5 µg/mL | MIC [4]: 12.5 µg/mL | MIC (μg/mL) S. marcescens ([5]; Serratia marcescens, 96-well plate, 37° C., 10 h): 12.5 µg/mL | MIC (μg/mL) P. vulgaris ([6]; Proteus vulgaris, 96-well plate, 37° C., 10 h): 25 µg/mL | MIC (μg/mL) P. mirabilis ([7]; Proteus mirabilis, 96-well plate, 37° C., 10 h): 100 µg/mL | MIC (μg/mL) E. coli BL21 ([8]; 96-well plate, 37° C., 10 h): 12.5 µg/mL | MIC (μg/mL) C. diversus ([9]; Citrobacter diversus, 96-well plate, 37° C., 10 h): 25 µg/mL | MIC (μg/mL) M. catarrhalis ([10]; Moraxella catarrhalis, 96-well plate, 37° C., 10 h): 12.5 µg/mL | MIC (μg/mL) A. hydrophila ([11]; Aeromonas hydrophila, 96-well plate, 37° C., 10 h): 25 µg/mL

PRT825 (FGPNCTHVCGCGQGAACDPVTGTCLCPPGRAGVRCE; listed as Homo sapiens)
MIC (μg/mL) E. cloacae [1, 12]: 25 µg/mL | MIC (μg/mL) K. pneumonia [2, 13]: 50 µg/mL | MIC (μg/mL) P. aeruginosa [3, 14]: 25 µg/mL | MIC [4]: 25 µg/mL | MIC (μg/mL) S. marcescens [5, 15]: 25 µg/mL | MIC (μg/mL) P. vulgaris [6, 16]: 50 µg/mL | MIC (μg/mL) P. mirabilis [7, 17]: 12.5 µg/mL | MIC (μg/mL) E. coli BL21 ([8]; 10 h cultivation at 37° C.): 12.5 µg/mL | MIC (μg/mL) C. diversus [9, 18]: 25 µg/mL | MIC (μg/mL) M. catarrhalis [10, 19]: 50 µg/mL | MIC (μg/mL) A. hydrophila [11, 20]: 12.5 µg/mL

PRT765 (VRDKCALGSHGCQHICVSDGAASYHCDCYPGYTLNEDKKTCS; listed as Homo sapiens)
MIC (μg/mL) E. cloacae [1, 12]: 12.5 µg/mL | MIC (μg/mL) K. pneumonia [2, 13]: 50 µg/mL | MIC (μg/mL) P. aeruginosa [3, 14]: 12.5 µg/mL | MIC [4]: 12.5 µg/mL | MIC (μg/mL) S. marcescens [5, 15]: 12.5 µg/mL | MIC (μg/mL) P. vulgaris [6, 16]: 12.5 µg/mL | MIC (μg/mL) P. mirabilis [7, 17]: 12.5 µg/mL | MIC (μg/mL) E. coli BL21 ([8]; 10 h cultivation at 37° C.): 50 µg/mL | MIC (μg/mL) C. diversus [9, 18]: 12.5 µg/mL | MIC (μg/mL) M. catarrhalis [10, 19]: 12.5 µg/mL | MIC (μg/mL) A. hydrophila [11, 20]: 12.5 µg/mL

PRT1024 (DVDECQPSRCHPDAFCYNTPGSFTCQCKPGYQGDGFRCV; listed as Homo sapiens)
MIC [1, 12]: 12.5 µg/mL | MIC [2, 13]: 25 µg/mL | MIC [3, 14]: 50 µg/mL | MIC [4]: 50 µg/mL | MIC [5, 15]: 12.5 µg/mL | MIC [6, 16]: 50 µg/mL | MIC [7, 17]: 12.5 µg/mL | MIC ([8]; 10 h cultivation at 37° C.): 12.5 µg/mL | MIC [9, 18]: 50 µg/mL | MIC [10, 19]: 25 µg/mL | MIC [11, 20]: 25 µg/mL

PRT736 (DVNECAEEGYCSQGCTNSEGAFQCWCETGYELRPDRRSCK; listed as Homo sapiens)
MIC E. cloacae ([1]; 96-well plate, 37° C., 10 h): 50 µg/mL | MIC K. pneumonia ([2]; 96-well plate, 37° C., 10 h): 50 µg/mL | MIC P. aeruginosa ([3]; 96-well plate, 37° C., 10 h): 50 µg/mL | MIC [4]: 12.5 µg/mL | MIC S. marcescens ([5]; 96-well plate, 37° C., 10 h): 50 µg/mL | MIC P. vulgaris ([6]; 96-well plate, 37° C., 10 h): 25 µg/mL | MIC P. mirabilis ([7]; 96-well plate, 37° C., 10 h): 12.5 µg/mL | MIC E. coli BL21 ([8]; 96-well plate, 37° C., 10 h): 25 µg/mL | MIC C. diversus ([9]; 96-well plate, 37° C., 10 h): 12.5 µg/mL | MIC M. catarrhalis ([10]; 96-well plate, 37° C., 10 h): 25 µg/mL | MIC A. hydrophila ([11]; 96-well plate, 37° C., 10 h): 25 µg/mL

PRT717 (DLNECLVFGTCSHQCINVEGSYKCVCDQNFQERNNTCI; listed as Homo sapiens)
MIC E. cloacae ([1]; 96-well plate, 37° C., 10 h): 50 µg/mL | MIC K. pneumonia ([2]; 96-well plate, 37° C., 10 h): 12.5 µg/mL | MIC P. aeruginosa ([3]; 96-well plate, 37° C., 10 h): 50 µg/mL | MIC [4]: 50 µg/mL | MIC S. marcescens ([5]; 96-well plate, 37° C., 10 h): 50 µg/mL | MIC P. vulgaris ([6]; 96-well plate, 37° C., 10 h): 12.5 µg/mL | MIC P. mirabilis ([7]; 96-well plate, 37° C., 10 h): 25 µg/mL | MIC E. coli BL21 ([8]; 96-well plate, 37° C., 10 h): 12.5 µg/mL | MIC C. diversus ([9]; 96-well plate, 37° C., 10 h): 25 µg/mL | MIC M. catarrhalis ([10]; 96-well plate, 37° C., 10 h): 50 µg/mL | MIC A. hydrophila ([11]; 96-well plate, 37° C., 10 h): 12.5 µg/mL
